As a reminder, the EC50 is the midpoint of the concentration-response curve. Low values mean a more potent agent, high ones a less potent agent.

Some results are limits rather than exact numbers.

The target of the experiment is AMPK. As to the kind of experiment: AMPK activation, enzyme-linked immunosorbent assay. In kind it is biochemical. The note with it: EC50 for AMPK activation, ELISA. Summed up:
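Compounds were tested for their capacity to activate the kinase using standard, commercially available kit reagents and procedures.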
The compound `COc1ccc(CN2CCC(NC(=O)c3ccc(C(=O)N4CCC(Oc5ccc(F)cc5)CC4)cn3)CC2)cc1` [Compound 161, 5-(4-(4-fluorophenoxy)piperidine-1-carbonyl)-N-(1-(4-methoxybenzyl)piperidin-4-yl)picolinamide] registered an EC50 below 500 nM.

`CC(C)(C)OC(=O)NCC#Cc1cc(C(=O)N2CCN(Cc3ccc(F)cc3)CC2)cnc1C(=O)NC1CCN(Cc2ccc(C#N)cc2)CC1` [Compound 164, tert-butyl 3-(2-(1-(4-cyanobenzyl)piperidin-4-ylcarbamoyl)-5-(4-(4-fluorobenzyl)piperazine-1-carbonyl)pyridin-3-yl)prop-2-ynylcarbamate] showed a 50% effective concentration (EC50) of 500 to 1000 nM.

For the compound `N#Cc1ccc(CN2CCC(NC(=O)c3ccc(N4CCC(Oc5ccc(C#N)cc5)CC4)cn3)CC2)cc1` [Compound 165, N-(1-(4-cyanobenzyl)piperidin-4-yl)-5-(4-(4-cyanophenoxy)piperidin-1-yl)picolinamide], the EC50 is below 500 nM.

With `N#Cc1ccc(CN2CCC(NC(=O)c3ccc(C(=O)NC4CCN(c5ccc(C#N)cc5)CC4)cn3)CC2)cc1` [Compound 166, N2-(1-(4-cyanobenzyl)piperidin-4-yl)-N5-(1-(4-cyanophenyl)piperidin-4-yl)pyridine-2,5-dicarboxamide], the EC50 is below 500 nM.

Take `N#Cc1ccc(O[C@H]2CC[C@@H](NC(=O)c3ccc(C(=O)N4CCC(Oc5ccc(F)cc5)CC4)cn3)CC2)cc1` [Compound 167, N-((cis)-4-(4-cyanophenoxy)cyclohexyl)-5-(4-(4-fluorophenoxy)piperidine-1-carbonyl)picolinamide]: the half-maximal effective concentration (EC50) is below 500 nM.

In turn, `N#Cc1ccc(O[C@H]2CC[C@H](NC(=O)c3ccc(C(=O)N4CCC(C(=O)c5ccc(F)cc5)CC4)cn3)CC2)cc1` [Compound 168, N-((trans)-4-(4-cyanophenoxy)cyclohexyl)-5-(4-(4-fluorobenzoyl)piperidine-1-carbonyl)picolinamide] came in with a concentration for a half-maximal effect (EC50) below 500 nM.

`N#Cc1ccc(O[C@H]2CC[C@H](NC(=O)c3ccc(C(=O)N4CCC(Oc5ccc(F)cc5)CC4)cn3)CC2)cc1` [Compound 169, N-((trans)-4-(4-cyanophenoxy)cyclohexyl)-5-(4-(4-fluorophenoxy)piperidine-1-carbonyl)picolinamide] displayed an EC50 of 500 to 1000 nM.

`O=C(Nc1ccc(C(=O)N2CCN(Cc3ccc(F)cc3)CC2)cn1)c1ccc(-c2ccccc2)cc1` [Compound 170, N-(5-(4-(4-fluorobenzyl)piperazine-1-carbonyl)pyridin-2-yl)biphenyl-4-carboxamide]: the concentration for a half-maximal effect (EC50) was above 10000 nM.

Regarding `COc1ccc(C(=O)C2CCN(C(=O)c3ccc(C(=O)N[C@H]4CC[C@@H](Oc5ccc(C#N)cc5)CC4)nc3)CC2)cc1` [Compound 171, N-((cis)-4-(4-cyanophenoxy)cyclohexyl)-5-(4-(4-methoxybenzoyl)piperidine-1-carbonyl)picolinamide], the EC50 was below 500 nM.

`COc1ccc(OC2CCN(C(=O)c3ccc(C(=O)N[C@H]4CC[C@H](Oc5ccc(C#N)cc5)CC4)nc3)CC2)cc1` [Compound 172, N-((trans)-4-(4-cyanophenoxy)cyclohexyl)-5-(4-(4-methoxyphenoxy)piperidine-1-carbonyl)picolinamide]: the EC50 was below 500 nM.

`N#Cc1ccc(CN2CCC(C(=O)Nc3ccc(C(=O)N4CCC(Oc5ccc(F)cc5)CC4)cn3)CC2)cc1` [Compound 173, 1-(4-cyanobenzyl)-N-(5-(4-(4-fluorophenoxy)piperidine-1-carbonyl)pyridin-2-yl)piperidine-4-carboxamide]: the EC50 is below 500 nM.

For the compound `COc1ccc(OC2CCN(C(=O)c3ccc(C(=O)N[C@H]4CC[C@@H](Oc5ccc(C#N)cc5)CC4)nc3)CC2)cc1` [Compound 174, N-((cis)-4-(4-cyanophenoxy)cyclohexyl)-5-(4-(4-methoxyphenoxy)piperidine-1-carbonyl)picolinamide], the concentration giving a half-maximal response (EC50) is below 500 nM.

Turning to `N#Cc1ccc(CN2CCC(C(=O)Nc3ccc(C(=O)N4CCC(C(=O)c5ccc(F)cc5)CC4)cn3)CC2)cc1` [Compound 175, 1-(4-cyanobenzyl)-N-(5-(4-(4-fluorobenzoyl)piperidine-1-carbonyl)pyridin-2-yl)piperidine-4-carboxamide], the EC50 is below 500 nM.

As for `N#Cc1ccc(O[C@H]2CC[C@@H](NC(=O)c3ccc(C(=O)N4CC[C@H](Oc5ccc(F)cc5)C4)cn3)CC2)cc1` [Compound 176, N-((cis)-4-(4-cyanophenoxy)cyclohexyl)-5-((S)-3-(4-fluorophenoxy)pyrrolidine-1-carbonyl)picolinamide], the EC50 was in the range of 1000 to 5000 nM.

For the compound `O=C(Nc1ccc(C(=O)N2CCN(Cc3ccc(F)cc3)CC2)cn1)c1ccc(Oc2ccc(F)cc2)nc1` [Compound 177, N-(5-(4-(4-fluorobenzyl)piperazine-1-carbonyl)pyridin-2-yl)-6-(4-fluorophenoxy) nicotinamide], the EC50 lay within 1000 to 5000 nM.

Take `COc1ccc(C(=O)C2CCN(C(=O)c3ccc(C(=O)NC4CCN(Cc5ccc(F)cc5)CC4)nc3)CC2)cc1` [Compound 178, N-(1-(4-fluorobenzyl)piperidin-4-yl)-5-(4-(4-methoxybenzoyl)piperidine-1-carbonyl)picolinamide]: the concentration giving a half-maximal response (EC50) is below 500 nM.

Take `O=C(NC1CCN(Cc2ccc(F)cc2)CC1)c1ccc(C(=O)N2CCC(Oc3ccc(C(F)(F)F)cc3)CC2)cn1` [Compound 179, N-(1-(4-fluorobenzyl)piperidin-4-yl)-5-(4-(4-(trifluoromethyl)phenoxy)piperidine-1-carbonyl)picolinamide]: the EC50 was below 500 nM.

For `O=C(NC1CCN(Cc2ccc(F)cc2)CC1)c1ccc(C(=O)N2CCC(Oc3ccc(F)cc3)CC2)cn1` [Compound 180, N-(1-(4-fluorobenzyl)piperidin-4-yl)-5-(4-(4-fluorophenoxy)piperidine-1-carbonyl)picolinamide], the EC50 was below 500 nM.

Turning to `O=C(NC1CCN(Cc2ccc(F)cc2)CC1)c1ccc(C(=O)N2CCC(C(=O)c3ccc(F)cc3)CC2)cn1` [Compound 181, 5-(4-(4-fluorobenzoyl)piperidine-1-carbonyl)-N-(1-(4-fluorobenzyl)piperidin-4-yl)picolinamide], the EC50 was below 500 nM.

Compound `O=C(NC1CCN(Cc2ccc(F)cc2)CC1)c1ccc(C(=O)N2CC[C@H](Oc3ccc(F)cc3)C2)cn1` [Compound 182, (S)-N-(1-(4-fluorobenzyl)piperidin-4-yl)-5-(3-(4-fluorophenoxy)pyrrolidine-1-carbonyl)picolinamide] had an EC50 below 500 nM.

`COc1ccc(OC2CCN(C(=O)c3ccc(C(=O)NC4CCN(Cc5ccc(F)cc5)CC4)nc3)CC2)cc1` [Compound 183, N-(1-(4-fluorobenzyl)piperidin-4-yl)-5-(4-(4-methoxyphenoxy)piperidine-1-carbonyl)picolinamide] came in with a half-maximal effective concentration (EC50) below 500 nM.

`COc1ccc(O[C@H]2CC[C@@H](NC(=O)c3ccc(C(=O)N4CCC(C(=O)c5ccc(OC)cc5)CC4)cn3)CC2)cc1` [Compound 184, 5-(4-(4-methoxybenzoyl)piperidine-1-carbonyl)-N-((cis)-4-(4-methoxyphenoxy)cyclohexyl)picolinamide] displayed a half-maximal effective concentration (EC50) below 500 nM.

Regarding `COc1ccc(O[C@H]2CC[C@@H](NC(=O)c3ccc(C(=O)N4CCC(Oc5ccc(C(F)(F)F)cc5)CC4)cn3)CC2)cc1` [Compound 185, N-((cis)-4-(4-methoxyphenoxy)cyclohexyl)-5-(4-(4-(trifluoromethyl)phenoxy)piperidine-1-carbonyl)picolinamide], the half-maximal effective concentration (EC50) was below 500 nM.
